According to US9180116B2, “Difluorolactam compounds as EP4 receptor-selective agonists for use in the treatment of EP4-mediated diseases and conditions” (Cayman Chemical Company, Inc., priority 2012, dated 2015):
Like-named read-outs stand apart in the source and are kept apart here. Values belong to the molecule of their own block, whether it stands above or below them.

How the values were obtained:
rat EP4 receptor [1] = target: T1, rat EP4 receptor (Rattus norvegicus (Rat), UniProt P43114); assay: SEAP activity assay for EP4 agonist (STEP plate format); type: cell-based
T1 sequence (P43114 whole entry): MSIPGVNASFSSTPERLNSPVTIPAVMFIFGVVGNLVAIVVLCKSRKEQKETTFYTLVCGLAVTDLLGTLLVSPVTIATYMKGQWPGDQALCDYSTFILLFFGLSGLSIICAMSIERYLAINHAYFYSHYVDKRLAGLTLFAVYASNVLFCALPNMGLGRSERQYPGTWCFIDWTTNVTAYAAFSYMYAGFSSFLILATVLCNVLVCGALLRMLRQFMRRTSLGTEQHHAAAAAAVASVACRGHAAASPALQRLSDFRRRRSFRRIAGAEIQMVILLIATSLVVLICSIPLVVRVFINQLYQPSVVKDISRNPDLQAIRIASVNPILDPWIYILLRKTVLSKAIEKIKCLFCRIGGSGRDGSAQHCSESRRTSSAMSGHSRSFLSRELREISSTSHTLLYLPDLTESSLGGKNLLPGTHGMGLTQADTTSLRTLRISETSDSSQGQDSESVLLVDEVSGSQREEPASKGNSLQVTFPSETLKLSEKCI
Excerpt: (§1) Functional Cellular Assays (STEP Plate Format)
(§2) Procedure of SEAP Activity Assay for EP2/EP4 Agonist
(§3) 3. […] In addition each concentration had triplicates.
(§4) 4. […] Cover the plate with the lid.

rat EP4 receptor [2] = target: T1, rat EP4 receptor; assay: cAMP level assay for EP4 agonist (STEP plate format); type: cell-based; conditions: read-out: STEP cell functional assay EC50 cAMP/EP4
Excerpt: as §1
Procedure of cAMP Assay for EP2/EP4 Agonist
as §3
6. Aspirate the supernatant.

[3] = target: Human Prostanoid EP4 Receptor (Homo sapiens (Human), UniProt P35408); assay: Radioligand binding assay, agonist site of human prostanoid EP4 receptor in transfected HEK-293 cells; conditions: for IC50: read-out: hEP4 receptor binding IC50; for Ki: read-out: hEP4 receptor binding Ki
Chain of Human Prostanoid EP4 Receptor (P35408 whole entry): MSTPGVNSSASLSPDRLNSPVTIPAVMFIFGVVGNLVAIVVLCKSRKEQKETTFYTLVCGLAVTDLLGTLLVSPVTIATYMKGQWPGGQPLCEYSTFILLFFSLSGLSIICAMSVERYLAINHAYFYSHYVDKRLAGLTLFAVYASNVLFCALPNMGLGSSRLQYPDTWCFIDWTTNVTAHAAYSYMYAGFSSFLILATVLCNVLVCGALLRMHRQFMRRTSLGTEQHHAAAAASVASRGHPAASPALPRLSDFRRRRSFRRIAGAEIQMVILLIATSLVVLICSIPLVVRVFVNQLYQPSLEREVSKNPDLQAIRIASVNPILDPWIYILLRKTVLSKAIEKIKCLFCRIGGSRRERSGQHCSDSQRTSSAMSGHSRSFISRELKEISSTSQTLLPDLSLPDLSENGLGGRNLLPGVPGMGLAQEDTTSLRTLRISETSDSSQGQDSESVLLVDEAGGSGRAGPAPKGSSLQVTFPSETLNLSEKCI
Procedure: Radioligand Binding Assay for the Evaluation of the Affinity of Compounds for the Agonist Site of the Human Prostanoid EP4 Receptor in Transfected HEK-293 Cells
Following incubation, the samples are filtered rapidly under vacuum through glass fiber filters (GF/B, Packard) presoaked with 0.3% PEI and rinsed several times with ice-cold 50 mM Tris-HCl using a 96-sample cell harvester (Unifilter, Packard). The filters are dried then counted for radioactivity in a scintillation counter (Topcount, Packard) using a scintillation cocktail (Microscint 0, Packard).

rat EP2 receptor = rat EP2 receptor (Rattus norvegicus (Rat), UniProt Q62928); assay: SEAP activity assay for EP2 agonist (STEP plate format); type: cell-based; conditions: read-out: STEP cell functional assay EC50 SEAP/EP2
Chain of rat EP2 receptor (Q62928 whole entry): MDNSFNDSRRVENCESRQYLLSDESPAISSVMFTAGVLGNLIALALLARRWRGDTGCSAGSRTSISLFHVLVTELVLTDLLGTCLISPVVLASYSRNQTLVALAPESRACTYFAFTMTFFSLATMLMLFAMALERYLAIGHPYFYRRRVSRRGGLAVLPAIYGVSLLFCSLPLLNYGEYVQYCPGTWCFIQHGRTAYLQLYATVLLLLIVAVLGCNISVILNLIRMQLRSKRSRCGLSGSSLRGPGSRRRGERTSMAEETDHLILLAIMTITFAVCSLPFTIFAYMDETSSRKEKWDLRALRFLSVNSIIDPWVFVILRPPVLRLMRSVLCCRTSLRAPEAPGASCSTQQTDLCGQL
Excerpt: as §1, §2, §3, §4

[4] = SEAP luminescence, 6-8 hours of stimulation, read-out: STEP cell functional assay EC50 SEAP/EP4
[5] = cAMP by ELISA, 30 minutes, 500 μM IBMX
[6] = [3H]PGE2 0.5 nM, HEK-293 cell membrane homogenates
[7] = SEAP luminescence, 6-8 hours of stimulation

Compound: CC#CC[C@H](C)[C@H](O)/C=C/[C@H]1CC(F)(F)C(=O)N1CCCCCCC(=O)O [Example 1F, 7-((R)-3,3-difluoro-5-((3S,4S,E)-3-hydroxy-4-methyloct-1-en-6-yn-1-yl)-2-oxopyrrolidin-1-yl)heptanoic acid]
EC50 (rat EP4 receptor [1]; [4]): 0.059 nM
EC50 (rat EP4 receptor [2]; [5]): 0.15 nM
IC50 [3, 6]: 1.2 nM
Ki [3, 6]: 0.44 nM

Compound: CCCCC[C@H](O)/C=C/[C@H]1CC(F)(F)C(=O)N1CCCCCCC(=O)O [Example 9C, 7-((R)-3,3-difluoro-5-((S,E)-3-hydroxyoct-1-en-1-yl)-2-oxopyrrolidin-1-yl)heptanoic acid]
EC50 (rat EP4 receptor [1]; [4]): 0.059 nM
EC50 (rat EP4 receptor [2]; [5]): 0.37 nM
IC50 [3, 6]: 0.57 nM
Ki [3, 6]: 0.21 nM
EC50 (rat EP2 receptor; [7]): 205 ± 124 nM

Compound: O=C(O)CCCCCCN1C(=O)C(F)(F)C[C@@H]1/C=C/[C@@H](O)CCCCc1ccccc1 [Example 10C, 7-((R)-3,3-difluoro-5-((S,E)-3-hydroxy-7-phenylhept-1-en-1-yl)-2-oxopyrrolidin-1-yl)heptanoic acid]
EC50 (rat EP4 receptor [1]; [4]): 0.01 nM
EC50 (rat EP4 receptor [2]; [5]): 1.1 nM
IC50 [3, 6]: 4.9 nM
Ki [3, 6]: 1.8 nM

Compound: CCC#CC[C@H](C)[C@H](O)/C=C/[C@H]1CC(F)(F)C(=O)N1CCc1ccc(C(=O)O)cc1 [Example 12D, 4-(2-((R)-3,3-difluoro-5-((3S,4S,E)-3-hydroxy-4-methylnon-1-en-6-yn-1-yl)-2-oxopyrrolidin-1-yl)ethyl)benzoic acid]
EC50 (rat EP4 receptor [1]; [4]): 0.035 nM
EC50 (rat EP4 receptor [2]; [5]): 0.047 nM
IC50 [3, 6]: 0.32 nM
Ki [3, 6]: 0.12 nM
EC50 (rat EP2 receptor; [7]): 1630 nM

Compound: CCCCC[C@H](O)/C=C/[C@H]1CC(F)(F)C(=O)N1CCc1ccc(C(=O)O)cc1 [Example 21C, 4-(2-((R)-3,3-difluoro-5-((S,E)-3-hydroxyoct-1-en-1-yl)-2-oxopyrrolidin-1-yl)ethyl)benzoic acid]
EC50 (rat EP4 receptor [1]; [4]): 0.075 nM
EC50 (rat EP4 receptor [2]; [5]): 0.61 nM
IC50 [3, 6]: 0.22 nM
Ki [3, 6]: 0.082 nM
EC50 (rat EP2 receptor; [7]): 1960 nM

Compound: C[C@@H](CCCc1ccccc1)[C@H](O)/C=C/[C@H]1CC(F)(F)C(=O)N1CCCc1ccc(C(=O)O)s1 [Example 28C, 5-(3-((R)-3,3-difluoro-5-((3S,4S,E)-3-hydroxy-4-methyl-7-phenylhept-1-en-1-yl)-2-oxopyrrolidin-1-yl)propyl)thiophene-2-carboxylic acid]
EC50 (rat EP4 receptor [2]; cAMP readout, EP4): 0.01 ± 0.021 nM
IC50 ([3]; human EP4 receptor binding): 0.74 nM
Ki ([3]; human EP4 receptor binding): 0.28 nM
EC50 (rat EP2 receptor; SEAP readout, EP2): 148 ± 5 nM

Compound: C[C@@H](CCCc1ccccc1)[C@@H](O)/C=C/[C@H]1CC(F)(F)C(=O)N1CCCc1ccc(C(=O)O)s1 [Example 28D, 5-(3-((R)-3,3-difluoro-5-((3R,4S,E)-3-hydroxy-4-methyl-7-phenylhept-1-en-1-yl)-2-oxopyrrolidin-1-yl)propyl)thiophene-2-carboxylic acid]
EC50 (rat EP4 receptor [2]; cAMP readout, EP4): 5.68 nM

Compound: COC(=O)c1ccc(CCCN2C(=O)C(F)(F)C[C@@H]2/C=C/[C@H](O)[C@H](C)CCCc2ccccc2)s1 [Example 28F, methyl 5-(3-((R)-3,3-difluoro-5-((3R,4R,E)-3-hydroxy-4-methyl-7-phenylhept-1-en-1-yl)-2-oxopyrrolidin-1-yl)propyl)thiphene-2-carboxylate]
EC50 (rat EP4 receptor [2]; cAMP readout, EP4): > 1000 nM

Compound: C[C@H](CCCc1ccccc1)[C@H](O)/C=C/[C@H]1CC(F)(F)C(=O)N1CCCc1ccc(C(=O)O)s1 [Example 28G, 5-(3-((R)-3,3-difluoro-5-((3S,4R,E)-3-hydroxy-4-methyl-7-phenylhept-1-en-1-yl)-2-oxopyrrolidin-1-yl)propyl)thiphene-2-carboxylic acid]
EC50 (rat EP4 receptor [2]; cAMP readout, EP4): 0.0162 nM
EC50 (rat EP2 receptor; SEAP readout, EP2): 65 nM

Compound: C[C@H](CCCc1ccccc1)[C@@H](O)/C=C/[C@H]1CC(F)(F)C(=O)N1CCCc1ccc(C(=O)O)s1 [Example 28H, 5-(3-((R)-3,3-difluoro-5-((3R,4R,E)-3-hydroxy-4-methyl-7-phenylhept-1-en-1-yl)-2-oxopyrrolidin-1-yl)propyl)thiphene-2-carboxylic acid]
EC50 (rat EP4 receptor [2]; cAMP readout, EP4): 3.15 nM

Continued, values first:

EC50 (rat EP4 receptor [2]; cAMP readout, EP4): 62 nM
Compound: C[C@@H](c1ccccc1)[C@H](O)/C=C/[C@H]1CC(F)(F)C(=O)N1CCCc1ccc(C(=O)O)s1 [Example 35C, 5-(3-((R)-3,3-difluoro-5-((3R,4S,E)-3-hydroxy-4-phenylpent-1-en-1-yl)-2-oxopyrrolidin-1-yl)propyl)thiophene-2-carboxylic acid]

EC50 (rat EP4 receptor [2]; cAMP readout, EP4): 5.02 nM
Compound: COC(=O)c1ccc(CCCN2C(=O)C(F)(F)C[C@@H]2/C=C/[C@@H](O)[C@@H](C)Cc2ccccc2)s1 [Example 36A, methyl 5-(3-((R)-3,3-difluoro-5-((3S,4S,E)-3-hydroxy-4-methyl-5-phenylpent-1-en-1-yl)-2-oxopyrrolidin-1-yl)propyl)thiophene-2-carboxylate]

EC50 (rat EP4 receptor [2]; cAMP readout, EP4): > 1000 nM
Compound: COC(=O)c1ccc(CCCN2C(=O)C(F)(F)C[C@@H]2/C=C/[C@H](O)[C@@H](C)Cc2ccccc2)s1 [Example 36B, methyl 5-(3-((R)-3,3-difluoro-5-((3R,4S,E)-3-hydroxy-4-methyl-5-phenylpent-1-en-1-yl)-2-oxopyrrolidin-1-yl)propyl)thiophene-2-carboxylate]

EC50 (rat EP4 receptor [2]; cAMP readout, EP4): 0.038 nM
EC50 (rat EP2 receptor; SEAP readout, EP2): 1000 nM
Compound: C[C@@H](Cc1ccccc1)[C@H](O)/C=C/[C@H]1CC(F)(F)C(=O)N1CCCc1ccc(C(=O)O)s1 [Example 36C, 5-(3-((R)-3,3-difluoro-5-((3S,4S,E)-3-hydroxy-4-methyl-5-phenylpent-1-en-1-yl)-2-oxopyrrolidin-1-yl)propyl)thiophene-2-carboxylic acid]

EC50 (rat EP4 receptor [2]; cAMP readout, EP4): 8.09 nM
Compound: COC(=O)c1ccc(CCCN2C(=O)C(F)(F)C[C@@H]2/C=C/[C@@H](O)[C@@H](C)CCc2ccccc2)s1 [Example 37A, methyl 5-(3-((R)-3,3-difluoro-5-((3S,4S,E)-3-hydroxy-4-methyl-6-phenylhex-1-en-1-yl)-2-oxopyrrolidin-1-yl)propyl)thiophene-2-carboxylate]

EC50 (rat EP4 receptor [2]; cAMP readout, EP4): > 1000 nM
Compound: COC(=O)c1ccc(CCCN2C(=O)C(F)(F)C[C@@H]2/C=C/[C@@H](O)[C@@H](C)CCCCc2ccccc2)s1 [Example 38A, methyl 5-(3-((R)-3,3-difluoro-5-((3S,4S,E)-3-hydroxy-4-methyl-8-phenyloct-1-en-1-yl)-2-oxopyrrolidin-1-yl)propyl)thiophene-2-carboxylate]

EC50 (rat EP4 receptor [2]; cAMP readout, EP4): > 1000 nM
Compound: COC(=O)c1ccc(CCCN2C(=O)C(F)(F)C[C@@H]2/C=C/[C@H](O)[C@@H](C)CCCCc2ccccc2)s1 [Example 38B, methyl 5-(3-((R)-3,3-difluoro-5-((3R,4S,E)-3-hydroxy-4-methyl-8-phenyloct-1-en-1-yl)-2-oxopyrrolidin-1-yl)propyl)thiophene-2-carboxylate]

EC50 (rat EP2 receptor; SEAP readout, EP2): 157 nM
Compound: C[C@@H](CCCCc1ccccc1)[C@H](O)/C=C/[C@H]1CC(F)(F)C(=O)N1CCCc1ccc(C(=O)O)s1 [Example 38C, 5-(3-((R)-3,3-difluoro-5-((3S,4S,E)-3-hydroxy-4-methyl-8-phenyloct-1-en-1-yl)-2-oxopyrrolidin-1-yl)propyl)thiophene-2-carboxylic acid]

EC50 (rat EP4 receptor [2]; cAMP readout, EP4): 0.37 nM
EC50 (rat EP2 receptor; SEAP readout, EP2): > 10000 nM
Compound: C[C@@H](CCCCc1ccccc1)[C@@H](O)/C=C/[C@H]1CC(F)(F)C(=O)N1CCCc1ccc(C(=O)O)s1 [Example 38D, 5-(3-((R)-3,3-difluoro-5-((3R,4S,E)-3-hydroxy-4-methyl-8-phenyloct-1-en-1-yl)-2-oxopyrrolidin-1-yl)propyl)thiophene-2-carboxylic acid]

EC50 (rat EP4 receptor [2]; cAMP readout, EP4): > 1000 nM
Compound: COC(=O)c1ccc(CCCN2C(=O)C(F)(F)C[C@@H]2/C=C/[C@@H](O)[C@@H](C)CCCCCc2ccccc2)s1 [Example 39A, methyl 5-(3-((R)-3,3-difluoro-5-((3S,4S,E)-3-hydroxy-4-methyl-9-phenylnon-1-en-1-yl)-2-oxopyrrolidin-1-yl)propyl)thiophene-2-carboxylate]

EC50 (rat EP4 receptor [2]; cAMP readout, EP4): > 1000 nM
Compound: COC(=O)c1ccc(CCCN2C(=O)C(F)(F)C[C@@H]2/C=C/[C@H](O)[C@@H](C)CCCCCc2ccccc2)s1 [Example 39B, methyl 5-(3-((R)-3,3-difluoro-5-((3R,4S,E)-3-hydroxy-4-methyl-9-phenylnon-1-en-1-yl)-2-oxopyrrolidin-1-yl)propyl)thiophene-2-carboxylate]

EC50 (rat EP2 receptor; SEAP readout, EP2): 1020 nM
Compound: C[C@@H](CCCCCc1ccccc1)[C@H](O)/C=C/[C@H]1CC(F)(F)C(=O)N1CCCc1ccc(C(=O)O)s1 [Example 39C, 5-(3-((R)-3,3-difluoro-5-((3S,4S,E)-3-hydroxy-4-methyl-9-phenylnon-1-en-1-yl)-2-oxopyrrolidin-1-yl)propyl)thiophene-2-carboxylic acid]

EC50 (rat EP4 receptor [2]; cAMP readout, EP4): 0.059 nM
EC50 (rat EP2 receptor; SEAP readout, EP2): 79000 nM
Compound: C[C@@H](CCCCCc1ccccc1)[C@@H](O)/C=C/[C@H]1CC(F)(F)C(=O)N1CCCc1ccc(C(=O)O)s1 [Example 39D, 5-(3-((R)-3,3-difluoro-5-((3R,4S,E)-3-hydroxy-4-methyl-9-phenylnon-1-en-1-yl)-2-oxopyrrolidin-1-yl)propyl)thiophene-2-carboxylic acid]

EC50 (rat EP2 receptor; [7]): 16.5 nM
Compound: CCCCC[C@H](O)/C=C/[C@H]1[C@H](O)CC(=O)[C@@H]1CCCCCCC(=O)O [PGE1, reference compound]
